According to BigSolDB 2.1:

C[C@@H]1CC[C@@]2(OC1)O[C@H]1C[C@H]3[C@@H]4CC=C5C[C@@H](O)CC[C@]5(C)[C@H]4CC[C@]3(C)[C@H]1[C@@H]2C
solubility (mole fraction)
Conditions	293.2 K	298.2 K	303.2 K	308.2 K	313.2 K	318.2 K	323.2 K	328.2 K
in 2-aminoethanol	0.00142	0.00218	0.0042	0.00625	0.00807	0.00914	0.011	0.0132
in DMF	0.00113	0.00159	0.00232	0.00369	0.00461	0.00587	0.00794	0.0116
in NMP	0.0118	0.0128	0.0138	0.0148	0.0163	0.0178	0.0196	0.0219
in acetonitrile	0.00359	0.00529	0.00675	0.00894	0.0125	0.0151	0.0188	0.0221
in morpholine-4-carbaldehyde	0.00663	0.00809	0.00976	0.012	0.0147	0.0162	0.0181	0.0198
in n-dodecane	0.000266	0.000351	0.000439	0.000542	0.000631	0.000743	0.000898	0.00105
in n-hexadecane	0.000256	0.000373	0.000465	0.000626	0.000949	0.00131	0.00171	0.00244
in n-nonanol	0.0067	0.00825	0.00965	0.011	0.0123	0.0132	0.0145	0.0155
in n-octane	8.1e-05	0.00013	0.00016	0.00021	0.000302	0.000466	0.00068	0.000915
in n-octanol	0.00348	0.00423	0.00516	0.0066	0.00842	0.00947	0.0104	0.0116
in sec-butanol	0.000128	0.000229	0.000436	0.000784	0.00119	0.0017	0.00253	0.00366

C[C@]12CC[C@@H]3c4ccc(O)cc4CC[C@H]3[C@@H]1C[C@@H](O)[C@@H]2O
solubility (mole fraction)
Conditions	293.2 K	298.2 K	303.2 K	308.2 K	313.2 K	318.2 K	323.2 K	328.2 K
in 2-aminoethanol	0.0111	0.0127	0.0148	0.018	0.0214	0.0254	0.0314	0.0363
in DMF	0.00112	0.00158	0.00258	0.00426	0.00581	0.00958	0.013	0.018
in NMP	0.000415	0.000677	0.00105	0.00174	0.00275	0.00364	0.00491	0.00718
in morpholine-4-carbaldehyde	6.2e-05	0.00023	0.000652	0.00147	0.00343	0.00495	0.00726	0.0107
in n-dodecane	0.00072	0.000779	0.00092	0.000956	0.00128	0.00179	0.00243	0.00285
in n-hexadecane	0.00114	0.00147	0.00175	0.00219	0.00251	0.00299	0.00335	0.00382
in n-nonanol	0.0074	0.00863	0.0104	0.0116	0.0131	0.0147	0.0168	0.0199
in n-octane	0.000621	0.000735	0.000873	0.00103	0.00123	0.00138	0.00152	0.00186
in n-octanol	0.00593	0.00678	0.00747	0.00868	0.0104	0.0121	0.0147	0.0171
in n-pentanol	0.00243	0.00285	0.00367	0.00468	0.00594	0.00809	0.00967	0.0121
in sec-butanol	0.00189	0.0025	0.0032	0.00403	0.00453	0.00533	0.00668	0.00812
in water	0.000115	0.000135	0.000168	0.000191	0.000306	0.000422	0.000577	0.000803
